Measured values taken from patent US6949574B2 (Bristol-Myers Squibb Company, priority 2002, dated 2005).
Read-outs that look alike come from different tables or passages of the source.

Target: T1, human FAAH (Homo sapiens, UniProt O00519)
T1 construct: expressed in transfected cells; host or cells: H4 cells (H4-FAAH, Geneticin-selected); crude membrane homogenates
T1 sequence (O00519 1-579): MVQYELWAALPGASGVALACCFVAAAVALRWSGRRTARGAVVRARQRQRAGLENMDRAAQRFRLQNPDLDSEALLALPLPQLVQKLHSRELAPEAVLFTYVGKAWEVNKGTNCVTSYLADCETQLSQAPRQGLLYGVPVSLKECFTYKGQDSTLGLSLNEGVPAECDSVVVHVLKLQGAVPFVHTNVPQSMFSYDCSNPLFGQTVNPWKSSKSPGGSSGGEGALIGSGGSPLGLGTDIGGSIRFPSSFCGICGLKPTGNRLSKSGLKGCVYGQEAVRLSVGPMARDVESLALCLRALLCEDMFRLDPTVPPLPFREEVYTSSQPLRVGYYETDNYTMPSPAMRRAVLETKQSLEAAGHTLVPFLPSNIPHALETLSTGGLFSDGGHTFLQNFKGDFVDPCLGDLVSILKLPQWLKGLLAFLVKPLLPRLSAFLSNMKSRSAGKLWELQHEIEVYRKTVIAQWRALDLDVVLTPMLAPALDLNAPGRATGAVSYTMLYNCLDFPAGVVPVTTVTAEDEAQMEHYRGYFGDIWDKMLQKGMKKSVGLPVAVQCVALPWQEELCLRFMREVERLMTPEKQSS
Assay: FAAH activity in membrane homogenates of H4-FAAH cells, [3H]-anandamide hydrolysis
Type: biochemical
Protocol: Homogenates of crude membranes were prepared from H4 cells that express transfected human FAAH (H4-FAAH cells). Briefly, cells were grown in DMEM supplemented with 10% FBS and Geneticin at a final concentration of 500 μg/ml (Gibco BRL, Rockville, Md.). Confluent cultures of H4-FAAH cells were rinsed twice with phosphate-buffered saline [138 mM NaCl, 4.1 mM KCl, 5.1 mM Na2PO4, 1.5 mM KH2PO4 (pH 7.5), 37° C.] and incubated for 5 to 10 minutes at 4° C. in lysis buffer [1 mM sodium bicarbonate]. Cells were transferred from plates to polypropylene tubes (16×100 mm), homogenized and centrifuged at 32,000×g for 30 minutes. Pellets were resuspended by homogenization in lysis buffer and centrifuged at 32,000×g for 30 minutes. Pellets were resuspended in lysis buffer (15-20 μg protein/ml) then stored at −80° C. until needed. On the day of an experiment, membranes were diluted to 2.67 μg protein/ml in 125 mM Tris-Cl, pH 9.0.
Activity of FAAH was measured using a modification of the method described by Omeir et al., 1995 (Life Sci 56:1999, 1995). Membrane homogenates (240 ng protein) were incubated at room temperature for one hour with 1.67 nM anandamide [ethanolamine 1-^3H] (available from American Radiolabeled Chemical Inc., St Louis, Mo.) and 10 μM anandamide (available from Sigma/RBI, St. Louis, Mo.) in the absence and presence of inhibitors. The reaction was stopped by the addition of 1 volume of a solution of 1:1 methanol and dichloroethane. The mixture was shaken and then centrifuged at 1000×g for 15 minutes to separate the aqueous and organic phases. An aliquot of the aqueous phase, containing [^3H]-ethanolamine was withdrawn and counted by scintillation spectroscopy. Data were expressed as the percentage of [^3H]-ethanolamine formed versus vehicle, after subtraction of the background radioactivity determined in the presence of 10 μM arachidonyl trifluoromethyl ketone (ATFMK), an inhibitor of FAAH. IC50 values were determined using a four-parameter logistic equation for dose-response curves.

[1] = H4-FAAH cell membranes, 10 μM anandamide, room temperature, one hour, read-out: IC50

Structure (SMILES)	IC50 [1]	IC50
CCCCCCCCCCCCOc1ccc(NC(=O)O/N=C/c2ccc(F)cc2)cc1 [Example 42, 4-Fluorobenzaldehyde, O-[[(4-dodecyloxyphenyl)amino]carbonyl]oxime]	< 10 nM	–
CCCCCCCCCCCCOc1ccc(NC(=O)O/N=C/c2cccnc2)cc1 [Example 43, 3-Pyridinecarboxaldehyde, O-[[(4-dodecyloxyphenyl)amino]carbonyl]oxime]	< 10 nM	–
CCCCOc1ccc(NC(=O)O/N=C/c2cccnc2)cc1 [Example 44, 3-Pyridinecarboxaldehyde, O-[[(4-butoxyphenyl)amino]carbonyl]oxime]	10 to 100 nM	–
CCCCCCCCOc1ccc(NC(=O)O/N=C/c2ccccc2)cc1 [Example 45, Benzaldehyde, O-[[(4-octyloxyphenyl)amino]carbonyl]oxime]	< 10 nM	–
CCCCCCCCOc1ccc(NC(=O)O/N=C/c2ccc(F)cc2)cc1 [Example 46, 4-Fluorobenzaldehyde, O-[[(4-octyloxyphenyl)amino]carbonyl]oxime]	< 10 nM	–
CCCCCCCCCOc1ccc(NC(=O)O/N=C/c2ccccc2)cc1 [Example 47, Benzaldehyde, O-[[(4-nonyloxyphenyl)amino]carbonyl]oxime]	< 10 nM	–
CCCCCCCCCOc1ccc(NC(=O)O/N=C/c2ccc(F)cc2)cc1 [Example 48, 4-Fluorobenzaldehyde, O-[[(4-nonyloxyphenyl)amino]carbonyl]oxime]	< 10 nM	–
CCCCCCCCCOc1ccc(NC(=O)O/N=C/c2ccc(F)c(F)c2)cc1 [Example 49, 3,4-Difluorobenzaldehyde, O-[[(4-nonyloxyphenyl)amino]carbonyl]oxime]	< 10 nM	–
CCCCCCCCCOc1ccc(NC(=O)O/N=C/c2c(F)cccc2F)cc1 [Example 50, 2,6-Difluorobenzaldehyde, O-[[(4-nonyloxyphenyl)amino]carbonyl]oxime]	< 10 nM	–
CCCCCCCCCOc1ccc(NC(=O)O/N=C/c2ccc(F)cc2F)cc1 [Example 51, 2,4-Difluorobenzaldehyde, O-[[(4-nonyloxyphenyl)amino]carbonyl]oxime]	< 10 nM	–
CCCCCCCCCOc1ccc(NC(=O)O/N=C/c2cccc(F)c2)cc1 [Example 52, 3-Fluorobenzaldehyde, O-[[(4-nonyloxyphenyl)amino]carbonyl]oxime]	< 10 nM	–
CCCCCCCCCOc1ccc(NC(=O)O/N=C/c2ccc(C(F)(F)F)cc2)cc1 [Example 53, 4-(Trifluoromethyl)benzaldehyde, O-[[(4-nonyloxyphenyl)amino]carbonyl]oxime]	< 10 nM	–
CCCCCCCCCOc1ccc(NC(=O)O/N=C/c2cccc(C(F)(F)F)c2F)cc1 [Example 54, 2-Fluoro-3-(trifluoromethyl)benzaldehyde, O-[[(4-nonyloxyphenyl)amino]carbonyl]oxime]	< 10 nM	–
CCCCCCCCCOc1ccc(NC(=O)O/N=C/c2cccc(F)c2F)cc1 [Example 55, 2,3-Difluorobenzaldehyde, O-[[(4-nonyloxyphenyl)amino]carbonyl]oxime]	< 10 nM	–
CCCCCCCCCOc1ccc(NC(=O)O/N=C/c2cc(F)c(F)cc2F)cc1 [Example 56, 2,4,5-Trifluorobenzaldehyde, O-[[(4-nonyloxyphenyl)amino]carbonyl]oxime]	< 10 nM	–
CCCCCCCCCOc1ccc(NC(=O)O/N=C/c2cc(C(F)(F)F)ccc2F)cc1 [Example 57, 2-Fluoro-5-(trifluoromethyl)benzaldehyde, O-[[(4-nonyloxyphenyl)amino]carbonyl]oxime]	< 10 nM	–
O=C(Nc1ccc(OCCCN2CCOCC2)cc1)O/N=C/c1ccc(F)cc1 [Example 58, 4-Fluorobenzaldehyde, O-[[4-[3-(4-morpholinyl)propoxyphenyl]amino]carbonyl]oxime]	> 500 nM	–
CCCCOc1ccc(NC(=O)O/N=C/c2ccc([N+](=O)[O-])cc2)cc1 [Example 59, 4-Nitrobenzaldehyde, O-[[(4-butoxyphenyl)amino]carbonyl]oxime]	< 10 nM	–
CCCCOc1ccc(NC(=O)ON=C(C)C)cc1 [Example 60, 2-Propanone, O-[[(4-butoxyphenyl)amino]carbonyl]oxime]	10 to 100 nM	–

Structure (SMILES)	IC50 [1]	IC50
CCCCOc1ccc(CNC(=O)ON=C(C)C)cc1 [Example 61, 2-Propanone, O-[[(4-butoxyphenylmethyl)amino]carbonyl]oxime]	> 500 nM	–
CCCCOc1ccc(CNC(=O)O/N=C/c2ccccc2)cc1 [Example 62, Benzaldehyde, O-[[(4-butoxyphenylmethyl)amino]carbonyl]oxime]	10 to 100 nM	–
CCCCOc1ccc(CNC(=O)O/N=C/c2ccc(F)cc2)cc1 [Example 63, 4-Fluorobenzaldehyde, O-[[(4-butoxyphenylmethyl)amino]carbonyl]oxime]	10 to 100 nM	–
CCCCOc1ccc(CNC(=O)O/N=C/c2cccnc2)cc1 [Example 64, 3-Pyridinecarboxaldehyde, O-[[(4-butoxyphenylmethyl)amino]carbonyl]oxime]	10 to 100 nM	–
CCCCOc1cccc(NC(=O)O/N=C/c2cccnc2)c1 [Example 65, 3-Pyridinecarboxaldehyde, O-[[(3-butoxyphenyl)amino]carbonyl]oxime]	10 to 100 nM	–
CCCCOc1cccc(NC(=O)ON=C(C)C)c1 [Example 66, 2-Propanone, O-[[(3-butoxyphenyl)amino]carbonyl]oxime]	–	> 500 nM
CCCCOc1cccc(NC(=O)O/N=C/c2ccccc2)c1 [Example 67, Benzaldehyde, O-[[(3-butoxyphenyl)amino]carbonyl]oxime]	10 to 100 nM	–
CCCCOc1cccc(NC(=O)O/N=C/c2ccc(F)cc2)c1 [Example 68, 4-Fluorobenzaldehyde, O-[[(3-butoxyphenyl)amino]carbonyl]oxime]	10 to 100 nM	–
O=C(Nc1ccc(-c2ccccc2)cc1)O/N=C/c1cccnc1 [Example 69, 3-Pyridinecarboxaldehyde, O-[[([1,1′-biphenyl]-4-yl)amino]carbonyl]oxime]	10 to 100 nM	–
CCc1ccc(-c2ccc(NC(=O)O/N=C/c3cccnc3)cc2)cc1 [Example 70, 3-Pyridinecarboxaldehyde, O-[[(4′-ethyl-[1,1′-biphenyl]-4-yl)amino]carbonyl]oxime]	10 to 100 nM	–
O=C(Nc1ccc(Oc2ccccc2)cc1)O/N=C/c1cccnc1 [Example 71, 3-Pyridinecarboxaldehyde, O-[[(4-phenoxyphenyl)amino]carbonyl]oxime]	< 10 nM	–
O=C(Nc1ccc(-c2ccccc2)cc1)O/N=C/c1ccccc1 [Example 72, Benzaldehyde, O-[[([1,1′-biphenyl]-4-yl)amino]carbonyl]oxime]	10 to 100 nM	–
CCc1ccc(-c2ccc(NC(=O)O/N=C/c3ccccc3)cc2)cc1 [Example 74, Benzaldehyde, O-[[(4′-ethyl-[1,1′-biphenyl]-4-yl)amino]carbonyl]oxime]	< 10 nM	–
CCc1ccc(-c2ccc(NC(=O)O/N=C/c3ccc(F)cc3)cc2)cc1 [Example 75, 4-Fluorobenzaldehyde, O-[[(4′-ethyl-[1,1′-biphenyl]-4-yl)amino]carbonyl]oxime]	< 10 nM	–
O=C(Nc1ccc(Oc2ccccc2)cc1)O/N=C/c1ccccc1 [Example 76, Benzaldehyde, O-[[(4-phenoxyphenyl)amino]carbonyl]oxime]	< 10 nM	–
O=C(Nc1ccc(Oc2ccccc2)cc1)O/N=C/c1ccc(F)cc1 [Example 77, 4-Fluorobenzaldehyde, O-[[(4-phenoxyphenyl)amino]carbonyl]oxime]	< 10 nM	–
O=C(Nc1ccc(OCc2ccccc2)cc1)O/N=C/c1cccnc1 [Example 78, 3-Pyridinecarboxaldehyde, O-[[[4-(phenylmethoxy)phenyl]amino]carbonyl]oxime]	< 10 nM	–
O=C(Nc1ccc(OCCc2ccccc2)cc1)O/N=C/c1cccnc1 [Example 79, 3-Pyridinecarboxaldehyde, O-[[[4-(2-phenylethoxy)phenyl]amino]carbonyl]oxime]	< 10 nM	–
